Counter-ions that a name gives are not always drawn. Like-named read-outs stand apart in the source and are kept apart here.
Experiments:
HEK 293T = experiment: WST-1 viability assay, HEK 293T cells; type: cell-based, human
Procedure: (§1) Based on the novelty of the IMBcat compound, we aimed to evaluate its in vitro cytotoxicity in selected model cell lines as well as to determine the toxicity of the IBMcat enantiomers, since both the chemical structure and chirality of compounds could play a role in their bioactivity (Table 2). The cytotoxic profile of the IBMcat was determined by a WST-1 viability assay after 72-h treatment. For this purpose, cell lines derived from distinct tissues, often affected by NPSs, were chosen, i.e., cells of kidney, hepatic, neural, urinary, and intestinal origin as well as keratinocytes and primary fibroblasts (HEK 293T, Hep G2, HMC-3, SH-SY5Y, 5637, CaCo-2, HaCaT, MRC-5, and BJ, respectively). The cytotoxicity of IBMcat and its enantiomers was concentration- and cell-line dependent, the IC50 values, which were in the micromolar range, are given in Table 2. […] This was followed by embryonic kidney cells HEK 293T (immortalized), in which the toxicity ranged between a concentration of 123 and 192 µM.
In this study, the following cell lines were used: HEK 293T, Hep G2, HMC-3, SH-SY5Y, 5637, CaCo-2, HaCaT, MRC-5, BJ, and L929. The cells lines were of the following origin: human embryonic immortalized kidney cells (HEK 293T), cells from hepatocellular carcinoma (Hep G2), microglial immortalized cells (HMC-3), cells from neuroblastoma (SH-SY5Y), the urinary bladder carcinoma (5637), colon carcinoma (CaCo-2), immortalized keratinocytes (HaCaT), noncancerous lung fibroblasts (MRC-5), fibroblasts from the foreskin (BJ) and mouse immortalized fibroblasts (L929; frequently used for cytotoxicity evaluation). The selected cell lines were chosen so that not only primary noncancerous cells are evaluated but also cells derived from tissues, which are the most often affected by novel synthetic drugs, i.e., kidney, liver, urinary bladder, and nervous tissue. Except for L929 and MRC-5 which were supplied by Sigma-Aldrich, the rest of the cell lines were purchased from the American Tissue Culture Collection (ATCC). […]
(§2) The cytotoxicity of IBMCat was evaluated in vitro by using a WST-1 viability assay (Sigma-Aldrich, Saint Louis, MO, USA) based on the transformation of a tetrazolium salt into colored formazan in metabolically active cells. […] After 72 h of additional incubation of the cells, their viability was determined by WST-1. […] The cells were incubated for 2 h, after which absorbance of the raised formazan was measured spectrophotometrically at 450 nm (reference wavelength of 630 nm) using a UV-Vis spectrometer (Bio-Rad Laboratories, Hercules, CA, USA). […] The half-maximal inhibitory concentrations (IC50) were calculated from the measured dose–response curves by AAT Bioquest.

CaCo-2 = experiment: WST-1 viability assay, CaCo-2 cells; type: cell-based, human; details: CaCo-2, 72 h incubation, WST-1, four replicates
Procedure: as §1
In this study, the following cell lines were used: HEK 293T, Hep G2, HMC-3, SH-SY5Y, 5637, CaCo-2, HaCaT, MRC-5, BJ, and L929. […] The selected cell lines were chosen so that not only primary noncancerous cells are evaluated but also cells derived from tissues, which are the most often affected by novel synthetic drugs, i.e., kidney, liver, urinary bladder, and nervous tissue. […]
as §2

[1] = Homo sapiens, 72 h incubation, WST-1, four replicates, read-out: IC50 ± SD

Row | Structure (SMILES) | IC50 (HEK 293T; Homo sapiens, 72 h, racemate and enantiomers, read-out: toxicity (IC50) range) [µM] | IC50 (HEK 293T; [1]) [µM] | IC50 (CaCo-2; Homo sapiens) [µM] | IC50 (HEK 293T; 72 h incubation, WST-1, four replicates, read-out: IC50 ± SD) [µM] | IC50 (CaCo-2) [µM]
1 | CNC(C)C(=O)c1ccc(CC(C)C)cc1.Cl (stereo not shown) [IBMcat, 4-isobutylmethcathinone hydrochloride] | 123 to 192 | 123 ± 6 | 389 ± 42 |  | 
2 | CN[C@@H](C)C(=O)c1ccc(CC(C)C)cc1 [S-IBMCat, (S)-4-isobutylmethcathinone hydrochloride] |  | 192 ± 2 | 390 ± 17 |  | 
3 | CN[C@H](C)C(=O)c1ccc(CC(C)C)cc1 [R-IBMCat] |  |  |  | 185 ± 5 | 331 ± 19
